Our source for the melting point values is a melting point compilation (Tetko et al.; mined from patent text by program, amines drawn as free bases though some values may be those of a salt).

By melting point is commonly meant the temperature of the solid-liquid transition. In turn, `CC1=Nc2c3ccccc3nc(=O)n2C1C` (configuration not stated) registered a melting point of 234 to 237 °C.

The compound `CC1=CC(c2cccc(Cl)c2)C(c2cccs2)=NN1` (configuration not stated) yielded a melting point of 109 °C.

The compound `CC(C)(C)c1csc(N)c1C(N)=O` registered a melting point of 145 °C.

`O=C(O)CC1=CCCCC1n1nc(-c2c(-c3ccccc3)nn3ccccc23)ccc1=O` (configuration not stated) gave a melting point of 164 to 166 °C.

Take `CNC(=O)c1ccc(C=CC(=O)NCC(=O)N(C)c2ccc(C)c(COc3cccc4c3nc(SC)n4C)c2C)cc1`: the melting point was 224 to 225 °C.

Compound `CCCN(Cc1ccc(C(=O)NC2Cc3ccccc3C2)cc1)C1CCc2ncsc2C1` (configuration not stated) showed a melting point of 65 °C.

Consider `COc1ccc(S(=O)(=O)n2ccc3ccnc(-c4cccs4)c32)cc1`, for which the melting point lay within 112 to 114 °C.

Take `O=C(O)COc1ccc(C(O)c2cccs2)c(Cl)c1Cl` (configuration not stated): the melting point was determined as 163 °C.

For the compound `CCN(CC)c1ccc(-n2c(C(F)(F)F)nn(C)c2=S)cn1`, the melting point lay within 96 to 98 °C.

For the compound `Cc1cc(=O)c(O)c(C)o1`, the melting point lay in the range of 161 to 163 °C.

In turn, `CC(C)COc1c(-c2ccc(S(N)(=O)=O)c(F)c2)cnn(CC(F)(F)F)c1=O` displayed a melting point of 163 to 164 °C.

As to `CNC(=O)c1ccccc1-c1cc(-c2ccccc2)on1`, the melting point lay within 159 to 160 °C.

Turning to `CC(CCOS(C)(=O)=S)(C(=O)O)C(=O)O` (configuration not stated), the melting point fell in the range of 109 to 111 °C.

In turn, `CC(C)COC1=C(Cc2ccc(Cl)cc2)C(=O)CC(C)(C)C1` displayed a melting point of 60 to 61 °C.

Compound `CC1(C(=O)N2C[C@@H]3C[C@H]2C(=O)O3)CC1` had a melting point of 101 to 102 °C.

`CN(C)C1(c2ccccc2)CCC(=O)CC1` returned a melting point of 104 to 108 °C.

Regarding `CCCCc1nc(CO)c(Sc2ccccc2)n1Cc1ccc(-c2ccccc2C(=O)O)cc1`, the melting point amounted to 220 °C.

`NC(=O)OCCN1Cc2ccccc2CCO1`: the melting point lay in the range of 110 to 111 °C.

In turn, `COc1ccc(CNC(=O)c2cc3c(=O)n(CC#Cc4ccccc4)c(=O)n(C)c3s2)cc1` displayed a melting point of 168 to 171 °C.

For `CCC(=O)N1CCN(c2n[nH]c3ncnc(Nc4cccc(Cl)c4)c23)CC1`, the melting point is 247 to 250 °C.

On to `COc1cccc(OC)c1NC(=O)c1ccc2nc(N[C@@H]3CCc4ccccc43)ccc2c1`, for which the melting point came to 199 °C.

`O=c1cc(-c2ccc(O)c(CO)c2)oc2cccnc12` registered a melting point of 226 to 227 °C.

As for `c1ccc(COc2ccc(-c3nc(COc4cccc(CCCCn5ccnc5)c4)co3)cc2)cc1`, the melting point lay within 87 to 88 °C.

Take `COc1ccc(-n2nccc2-c2nn(-c3cccc(C(F)(F)F)c3)ccc2=O)cc1`: the melting point lay within 173 to 174 °C.

`COC(=O)C#CC(=O)c1cccc(Cl)c1`: the melting point was 73 to 75 °C.

On to `CCOC(=O)CN1C(=O)[C@@H](NC(=O)OC(C)(C)C)CCc2ccccc21`, for which the melting point was 99 to 101 °C.

In the case of `CC(C)C[C@H](O)[C@H](O)[C@H](CC1CCCCC1)NC(=O)OC(C)(C)C`, the melting point is 128 to 130 °C.

`C[C@@H](N1CC(=O)N(c2ccc(F)cc2F)C1=O)[C@@]1(c2ccc(F)cc2F)CO1` registered a melting point of 124 to 125 °C.

`CCOC(=O)C1=C(C)NC(C)=C(C(=O)OCC)C1c1ccccc1/C=C(\C)c1ccccc1` yielded a melting point of 141 to 142 °C.

Regarding `CCOC(=O)c1cnc(CC)nc1NCc1ccc(-c2ccccc2-c2nnnn2C(c2ccccc2)(c2ccccc2)c2ccccc2)cc1`, the melting point is 134 to 136 °C.

Compound `CC(C)c1c(C(=O)Nc2ccccc2)c(-c2ccccc2)c(-c2ccc(F)cc2)n1CCCC(O)C(O)CC(=O)N(c1ccccc1)c1ccccc1` (configuration not stated) returned a melting point of 228 to 233 °C.

`CCc1c(C)c(NC(=O)NC(C)(C)C)c(C)c2c1OCC2c1ccc(C(C)C)cc1` (configuration not stated) gave a melting point of 207 to 209 °C.

Take `C=C(C)C(=O)Oc1cccc(O)c1O`: the melting point fell in the range of 100 to 102 °C.

Compound `O=C(Oc1cc(=O)[nH]cc1Cl)c1ccccc1` yielded a melting point of 196 to 197 °C.

`CC(=O)NC[C@H]1CN(c2ccc(N3CCC(O)(CC(N)=O)CC3)c(F)c2)C(=O)O1` displayed a melting point of 208 to 210 °C.

In the case of `Cc1cc(CNC(=O)c2nc3ccc(F)c(OCCc4ccc(C(=O)O)cc4)c3c(=O)[nH]2)ccc1F`, the melting point lay in the range of 267 to 268 °C.

Compound `COc1ccc(OC)c(COc2ccc(S(=O)(=O)c3ccc(C)nc3Nc3c(C)cc(C)cc3C)cc2)c1` gave a melting point of 128 to 130 °C.

`COC(=O)c1cc(OC)cc(OC)c1N` yielded a melting point of 93 to 95 °C.

`CC1(C)CCC(=O)Nc2ccc(N)cc21` displayed a melting point of 168 °C.

`CCNC(=S)NC1CCC(=O)c2ccccc21` (configuration not stated) registered a melting point of 134 to 138 °C.

Regarding `CCN1CCN(c2ccc([N+](=O)[O-])cc2OC)CC1`, the melting point was in the range of 84 to 85 °C.

On to `C=CCOc1ccc2sc(=O)oc2c1`, for which the melting point lay within 78 to 80 °C.

Take `CC(C)c1cc(-c2ccc(F)c3ccccc23)nc(N(S(C)(=O)=O)S(C)(=O)=O)n1`: the melting point stood at 144 °C.

For `CC(C)(C)C1(Cl)Cc2cc(OCC(=O)O)c(Cl)c(Cl)c2C1=O` (configuration not stated), the melting point was in the range of 184 to 186 °C.

Compound `CCCCn1ncc(/C=C(\Cc2cc3c(cc2OC)OCO3)C(=O)O)c1-c1ccc(OC)cc1OCc1ccccc1C(=O)O` had a melting point of 213 to 214 °C.

The compound `Cn1cc(Oc2cccc(Cl)c2Cl)c(=O)c(-c2cccc(C(F)(F)F)c2)c1` came in with a melting point of 200 to 202 °C.

Regarding `NC1CCc2[nH]c3ccccc3c2C1` (configuration not stated), the melting point is 160 to 166 °C.

`CCNC(=O)Nc1cc(F)cc2c1OCCC21SC(=O)NC1=O` (configuration not stated) showed a melting point of 197 to 199 °C.

As to `C#CCn1cc(CO)sc1=O`, the melting point fell in the range of 97 to 98 °C.

In turn, `CCc1c(COC(C)=O)nc(-c2ccc(OC)c(OC)c2)c2cc(OC)c(OC)cc12` registered a melting point of 129 to 131 °C.

Consider `CCCCc1nc(Cl)c(C(=O)O)n1Cc1ccc2oc(-c3ccccc3-c3nnn[nH]3)c(Br)c2c1`, for which the melting point is 183 to 185 °C.

The compound `COc1cc2c(c3c1OC(C)(C)C3)C(c1cccc(C(N)=O)c1)=NCC2(C)C` yielded a melting point of 191 to 193 °C.

As for `CN1C(=O)CC[C@]2(C)c3ccc(-c4ccc(O)c(Cl)c4)cc3CC[C@@H]12`, the melting point is 245 °C.

Compound `Cc1ccc(-c2ccc(Sc3ccccc3)s2)cc1C` yielded a melting point of 77 to 78 °C.

`CC(C)(C)C(=O)Oc1ccc(S(=O)(=O)c2ccc(S(N)(=O)=O)s2)cc1` returned a melting point of 192 to 195 °C.

As to `CC(C)(C)Nc1c([N+](=O)[O-])cc([N+](=O)[O-])c2nc(C(F)(F)F)[nH]c12`, the melting point was in the range of 177 to 188 °C.

The compound `O=C1N(c2c(Cl)cccc2Cl)Cc2cnc(Nc3ccccc3)nc2N1c1cccc(CCO)c1` had a melting point above 250 °C.

`Cc1ccc(S(=O)(=O)n2c(CCCC(=O)O)cc3nc(Cl)ccc32)c2ccccc12` had a melting point of 199 to 204 °C.

`COc1cc(CCCC#N)ccc1OCc1nc(-c2ccco2)oc1C` registered a melting point of 94 to 95 °C.

Compound `COc1c2c(c(OC)c(OC)c1OC)CC(CCCCOc1ccc(C(=O)O)cc1)C2` returned a melting point of 136 to 138 °C.

`COC(=O)COc1ccc(C(=O)NNC(=O)c2ccc(C#N)cc2)cc1` had a melting point of 220 to 222 °C.

As to `NC1=CC([N+](=O)[O-])C(N)(CC(F)(F)F)C=C1` (configuration not stated), the melting point lay in the range of 104 to 106 °C.

For `Cc1ccc(OCc2c(F)cccc2Cl)c(NC(=S)Nc2ccc(Cl)cc2)n1`, the melting point lay in the range of 204 to 205 °C.

`O=Cc1ccc2c(c1)Sc1ccc(F)cc1C=C2` displayed a melting point of 137 to 139 °C.

As to `COc1c(C)c(C(=O)c2ccc3[nH]c(=O)n(N)c(=O)c3c2)n2ccccc12`, the melting point worked out at 220 °C.

Take `N#Cc1cc(C#N)cc(Oc2ccnc(Oc3cc(Cl)cc(Cl)c3)n2)c1`: the melting point stood at 196 °C.

Consider `COCOc1cc(CCC(=O)c2c(OC)cc(OC)c(CCC(C)C)c2O)ccc1OC`, for which the melting point was in the range of 93.5 to 94.5 °C.

As to `CCOC(=O)c1cnc(Nc2ccc(-n3cnc(C)c3)c(OC)c2)nc1-c1ccc(Cl)cc1`, the melting point was in the range of 216 to 218 °C.

Turning to `NC(=O)C1CCc2sc3ccc(F)cc3c2C1` (configuration not stated), the melting point was 201 to 202 °C.

`O=C(Nc1ccc(N2CCOCC2)c(C(F)(F)F)c1)c1ccc(F)c(OCc2cccnc2)c1` came in with a melting point of 160 to 161 °C.

Compound `CC(=C1SC(=O)NC1=O)c1cccc(OCCOc2c(-c3ccc(F)cc3C)n(C)c3ccccc3c2=O)c1` registered a melting point of 225 to 226 °C.

With `CCCCN(CCCC)c1ccc(C=CC=CC2=C(C#N)C(=C(C#N)C#N)OC2(c2ccccc2)C(F)(F)F)c(OC)c1` (configuration not stated), the melting point lay within 190 to 192 °C.

As to `CN(C(=O)OC(C)(C)C)c1sc(-c2cccnc2)nc1Br`, the melting point fell in the range of 88 to 91 °C.

`CC(=O)OCCOC(C)n1cc(F)c(=O)[nH]c1=O` (configuration not stated) displayed a melting point of 121 to 122 °C.

`O=C(c1ccc(F)cc1)N1CCC[C@H](c2nc(-c3cscn3)no2)C1`: the melting point is 118 to 120 °C.

Regarding `Cc1ccc2c(c1)Cc1c(C(=O)C(C#N)C(=O)Nc3ccccc3)nn(-c3ccccc3)c1-2` (configuration not stated), the melting point lay in the range of 249 to 251 °C.

Turning to `ClCOc1ccc(Cl)cc1Br`, the melting point lay within 56 to 57.5 °C.

Regarding `CCC(C)OC(=O)C(C(=O)O)=C1SCS1` (configuration not stated), the melting point lay in the range of 80 to 82 °C.

Take `Clc1ccc(C2(Cn3cncn3)OCOC2c2ccc(Cl)cc2Cl)cc1` (configuration not stated): the melting point lay in the range of 201 to 203 °C.

Turning to `O=C(COc1ccc(NC(=O)OCCO)cc1)OCCOC(=O)COc1ccc(NC(=O)OCCO)cc1`, the melting point was 158 to 161 °C.

`CC1(C)CCC(C)(C)c2c(O)cc(-c3ccccc3)cc21` displayed a melting point of 121 °C.

For `COCc1cc(N(C)C)ncn1`, the melting point fell in the range of 42 to 44 °C.

The compound `CN1CCN(C(=O)c2nc(-c3ccccc3)nc3c2c2ccc(Cl)cc2n3C)CC1` yielded a melting point of 236 to 238 °C.

As for `C=Cc1cccc(-n2ncc(-c3ccc(S(C)(=O)=O)cc3)c(-c3ccc(F)cc3)c2=O)c1`, the melting point fell in the range of 182 to 183 °C.

`CC(C)c1cccc(C(C)C)c1OCC(=O)O` came in with a melting point of 84 to 87 °C.

`CCS(=O)(=O)/C=C/c1ccc2[nH]cc(C3CCN(C)CC3)c2c1` registered a melting point of 98 to 102 °C.

In the case of `COc1ccc(COc2ccccc2-c2cccc(N)c2)cc1`, the melting point lay in the range of 68 to 70 °C.
